One test has as its target transthyretin (TTR) (Homo sapiens, UniProt P02766). Nature of the test: […]T4 displacement. The class given is binding. The settings on record: cited from earlier work.
The next test deals with T1, thyroid peroxidase (TPO) (Homo sapiens, UniProt P07202).
T1 sequence (P07202 19-933): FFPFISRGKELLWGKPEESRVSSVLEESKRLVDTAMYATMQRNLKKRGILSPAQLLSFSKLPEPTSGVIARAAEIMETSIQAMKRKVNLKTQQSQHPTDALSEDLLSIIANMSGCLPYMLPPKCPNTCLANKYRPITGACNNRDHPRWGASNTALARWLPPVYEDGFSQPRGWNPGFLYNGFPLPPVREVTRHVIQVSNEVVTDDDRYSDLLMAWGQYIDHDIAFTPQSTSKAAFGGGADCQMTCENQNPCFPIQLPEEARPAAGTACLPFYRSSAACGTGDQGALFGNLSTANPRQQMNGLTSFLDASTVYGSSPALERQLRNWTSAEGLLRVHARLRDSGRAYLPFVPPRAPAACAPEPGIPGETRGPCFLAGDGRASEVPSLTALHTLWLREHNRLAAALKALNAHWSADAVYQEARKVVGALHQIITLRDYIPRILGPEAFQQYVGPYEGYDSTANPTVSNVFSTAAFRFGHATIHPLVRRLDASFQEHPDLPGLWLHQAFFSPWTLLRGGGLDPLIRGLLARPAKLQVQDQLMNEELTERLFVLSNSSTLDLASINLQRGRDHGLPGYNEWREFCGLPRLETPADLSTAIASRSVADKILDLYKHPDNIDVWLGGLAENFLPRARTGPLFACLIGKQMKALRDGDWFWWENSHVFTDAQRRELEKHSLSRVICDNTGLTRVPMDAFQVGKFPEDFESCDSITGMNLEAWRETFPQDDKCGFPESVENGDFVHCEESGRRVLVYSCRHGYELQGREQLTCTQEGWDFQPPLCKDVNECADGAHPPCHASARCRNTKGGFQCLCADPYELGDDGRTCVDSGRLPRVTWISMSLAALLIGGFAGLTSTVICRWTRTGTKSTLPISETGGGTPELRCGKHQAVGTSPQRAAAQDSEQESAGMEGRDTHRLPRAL
Briefly: guaiacol oxidation assay with digitonin-extracted recombinant TPO. The format is cell-based.

As usually defined, the IC50 is the concentration needed to halve the response being measured. Take `COc1cc2c(=O)c(-c3ccc(O)cc3)coc2cc1O` [glycitein]: the half-maximal inhibitory concentration (IC50) at transthyretin (TTR) was 200 nM.
With `O=c1c(-c2ccc(O)cc2)coc2cc(O)cc(O)c12` [genistein], on transthyretin (TTR), the IC50 is 70 nM.
For `O=c1c(-c2ccc(O)cc2)coc2cc(O)ccc12` [daidzein], on transthyretin (TTR), the IC50 is 1800 nM.
With `CC(C)(c1ccc(O)cc1)c1ccc(O)cc1` [bisphenol A], at thyroid peroxidase (TPO), the IC50 entry is “the industrial chemicals 4-NP and BPA also inhibited TPO”.
